We go through twelve compounds from ChEMBL document CHEMBL3217743, “Reduction of acyl glucuronidation in a series of acidic 11-hydroxysteroid dehydrogenase type 1 (11-HSD1) inhibitors: the discovery of AZD6925” (Medchemcomm, 2012).

A short description of data set [1]: Octanol-buffer partition coefficient, log D of the compound at pH 7.4 after 30 mins by shake-flask method. In kind it is physicochemical.
The nature of data set [2]: Fraction unbound in rat plasma by equilibrium dialysis technique. The data set is classed as ADME, cell-free.
The nature of data set [3]: Clearance in rat hepatocytes measured per 10^6 cells. The data set is classed as ADME, cell-based, Hepatocyte. The settings on record: read-out: CLH.
The nature of the next data set: in vivo. The settings on record: rat.
The nature of data set [4]: Clearance in rat. The data set is classed as ADME, organism-based. Particulars: in vivo.
Data set [5] can be described thus: Apparent permeability from apical to basolateral side in human Caco2 cells. The data set is classed as ADME, cell-based. Particulars: Caco-2. For orientation: Caco-2 cells form a polarised layer with tight junctions and transporters.
A short description of data set [6]: Inhibition of N-terminal 6-His-tagged dog full length 11beta-HSD1 assessed as conversion of cortisone to cortisol after 25 mins by HTRF assay. More on the design: species or system Canis lupus familiaris. On the technique in general: TR-FRET usually uses a lanthanide donor and a delayed reading to cut background.
Data set [7] in a line: Inhibition of N-terminal 6-His-tagged cynomolgus monkey full length 11beta-HSD1 assessed as conversion of cortisone to cortisol after 25 mins by HTRF assay. Details: species or system Macaca fascicularis.
Data set [8] is described as follows: Drug metabolism in rat hepatocytes assessed as ratio of glucuronidated to oxidized compound level by LC-MS/MS analysis. In kind it is ADME, cell-based, Hepatocyte.
The nature of data set [9]: Drug metabolism in human hepatocytes assessed as ratio of glucuronidated to oxidized compound level by LC-MS/MS analysis. The data set is classed as ADME, cell-based, Hepatocyte.
Data set [10] can be described thus: Drug excretion in bile duct cannulated rat bile assessed as ratio of glucuronidated to oxidized compound level by HPLC analysis. In kind it is ADME, tissue-based. The settings on record: in vivo.
The nature of data set [11]: Drug excretion in bile duct cannulated rat urine assessed as ratio of glucuronidated to oxidized compound level by HPLC analysis. The data set is classed as ADME. The settings on record: in vivo.
Data set [12] can be described thus: Drug metabolism in dog hepatocytes assessed as ratio of glucuronidated to oxidized compound level by LC-MS/MS analysis. In kind it is ADME, cell-based, Canis lupus familiaris, Hepatocyte.
The nature of data set [13]: Drug excretion in bile duct cannulated rat urine assessed as compound remaining by HPLC analysis. The data set is classed as ADME, tissue-based. Particulars: read-out: Stability.

pIC50: −log10 of the molar value.

Consider `O=C(N[C@H]1C2CC3CC1C[C@](O)(C3)C2)c1ccc(N2C[C@@H]3[C@H](C2)[C@H]3C(=O)O)nc1SC1CCCC1`, for which, in data set [1], the pH-dependent lipophilicity (logD) (in general, lipophilicity at a set pH, counting ionised and neutral species) at 0.5 h came out at 1.5. The fraction unbound – broadly, the share of the substance not bound to proteins or other matrix – in [2] turned out to be 0.04. For the same compound, the hepatocyte CLint in data set [3] came out at 4 µL/min/1e6 cells. Also, the bioavailability (commonly dose-corrected exposure relative to a reference, in per cent) in “in vivo” was 57%. Besides, in data set [4], the clearance (as a rule, a measure of how efficiently the substance is removed, as volume per time) was 43 mL/min/kg.
In the same order, the values of `CCCSc1nc(N2CCC(C(=O)O)C2)ccc1C(=O)NC1CCCCC1` (configuration not stated) are 1.1, 0.012, 3 µL/min/1e6 cells, 52% and 3 mL/min/kg.
For `O=C(N[C@H]1C2CC3CC1C[C@](OC(F)F)(C3)C2)c1ccc(N2C[C@@H]3[C@H](C2)[C@H]3C(=O)O)nc1SC1CCCC1` the same measures were 3.4, 0.005, 7 µL/min/1e6 cells, 94% and 9 mL/min/kg.
In data set [1], `CCCSc1nc(N2C[C@@H]3[C@H](C2)[C@H]3C(=O)O)ccc1C(=O)NC1CCCCC1` yielded a logD at 0.5 h of 1.8. The same compound had a fraction unbound in data set [2] of 0.025. Moreover, the hepatocyte CLint in data set [3] was less than 2 µL/min/1e6 cells. In “in vivo”, this compound showed a bioavailability of 80%. This compound returned a clearance in data set [4] of 2 mL/min/kg.
`CCCSc1nc(N2CCC[C@@H](Cc3nnn[nH]3)C2)ccc1C(=O)NC1CCCCC1`: the logD at 0.5 h in data set [1] was 2.4. For the same compound, the fraction unbound in data set [2] was 0.006. For the same compound, the hepatocyte CLint in data set [3] amounted to 9 µL/min/1e6 cells. This compound also came in with a bioavailability in the data set “in vivo” of 21%. In [4], the clearance came out at 31 mL/min/kg.
In the case of `O=C(O)[C@H]1[C@@H]2CN(c3ccc(C(=O)N4CCC(c5cccnc5)C4)c(SC4CCCC4)n3)C[C@@H]21` (some centres not stated), the Papp A→B (in general, how fast a substance crosses the layer from the apical side) in data set [5] amounted to 2 ×10⁻⁶ cm/s. The logD at 0.5 h in data set [1] came to 1.2. Moreover, the fraction unbound in [2] came out at 0.034. In addition, the hepatocyte CLint in [3] stood at 20 µL/min/1e6 cells. Further, the bioavailability in “in vivo” stood at 3%. For the same compound, the clearance in data set [4] worked out at 18 mL/min/kg.
In data set [1], `CCCSc1nc(N2CC[C@H](CC(=O)O)C2)ccc1C(=O)NC1CCCCC1` displayed a logD at 0.5 h of 1.7. This compound returned a fraction unbound in [2] of 0.01. For the same compound, the hepatocyte CLint in data set [3] is less than 2 µL/min/1e6 cells. Further, in the data set “in vivo”, the bioavailability came out at 96%. Moreover, the clearance in data set [4] worked out at 2 mL/min/kg.
For the compound `CCCSc1nc(N2C[C@@H]3[C@H](C2)[C@H]3C(=O)O)ccc1C(=O)N[C@H]1C2CC3CC1C[C@](O)(C3)C2`, the logD at 0.5 h in [1] worked out at 0.8. In [2], this compound registered a fraction unbound of 0.108. Further, in [3], the hepatocyte CLint is less than 2 µL/min/1e6 cells. Further, the bioavailability in “in vivo” was 48%. The clearance in [4] came to 42 mL/min/kg.
For `CCCSc1nc(N2CCCC(C3(C(=O)O)CC3)C2)ccc1C(=O)NC1CCCCC1` (configuration not stated) the same measures were 3.5, 0.002, 15 µL/min/1e6 cells, 71% and 8 mL/min/kg.
Regarding `CCCSc1nc(N2CCC[C@@H](CC(=O)O)C2)ccc1C(=O)NC1CCCCC1` [AZD-4017], the pIC50 (commonly the IC50 on a negative log10 scale, so that one unit is a factor of ten) in data set [6] is 5.42; in data set [7], 7.54. This compound came in with a fraction unbound in [2] of 0.018. Further, the hepatocyte CLint in [3] is less than 2 µL/min/1e6 cells. Moreover, the Ratio in data set [8] was found to be 2.1; in data set [9] it was 6; in data set [10], 7.5; in [11], 2.4; in data set [12], 4.1. The same compound returned a bioavailability in the data set “in vivo” of 66%. In data set [13], the dose excreted is 4%.
In turn, `CCCSc1nc(N2CCCC(C(C)(C)C(=O)O)C2)ccc1C(=O)NC1CCCCC1` (configuration not stated) came in with a logD at 0.5 h in data set [1] of 3.3. In addition, the fraction unbound in data set [2] stood at 0.004. In addition, the hepatocyte CLint in data set [3] stood at 22 µL/min/1e6 cells. This compound also showed a bioavailability in “in vivo” of 84%. This compound registered a clearance in data set [4] of 9 mL/min/kg.
In the same order, the values of `CCCSc1nc(N2CCC[C@@H](CC(=O)NS(C)(=O)=O)C2)ccc1C(=O)NC1CCCCC1` are 1.6, 0.017, 38 µL/min/1e6 cells, 5% and 35 mL/min/kg.
